Source: paper PMC6334005, “Ginsenosides Act As Positive Modulators of P2X4 Receptors” (Molecular Pharmacology, 2019)

How the values were obtained:
hP2X4 [1] = molecular target: T1, hP2X4 (Homo sapiens, UniProt Q99571); assay: YOPRO-1 dye uptake, potentiation of ATP response; assay type: cell-based; design: gene P2RX4; full-length, C-terminal Glu-Glu tag, pcDNA3, stably expressed in HEK-293 cells; homotrimer
T1 sequence (Q99571 1-388): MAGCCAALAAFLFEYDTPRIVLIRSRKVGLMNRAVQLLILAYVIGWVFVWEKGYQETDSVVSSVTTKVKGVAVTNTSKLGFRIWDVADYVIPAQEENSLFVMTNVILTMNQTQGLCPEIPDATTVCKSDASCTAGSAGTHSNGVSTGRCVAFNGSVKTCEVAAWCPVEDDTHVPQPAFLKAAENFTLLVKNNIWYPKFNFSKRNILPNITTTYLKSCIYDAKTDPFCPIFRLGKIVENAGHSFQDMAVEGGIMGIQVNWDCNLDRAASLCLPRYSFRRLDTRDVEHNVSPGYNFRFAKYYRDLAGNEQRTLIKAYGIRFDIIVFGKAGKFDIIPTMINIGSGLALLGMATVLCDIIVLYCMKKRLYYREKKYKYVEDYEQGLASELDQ

hP2X4 [2] = molecular target: T1, hP2X4; assay: cell-based; design: gene P2RX4

| SMILES | EC50 (hP2X4 [1]) [µM] | EC50 (hP2X4 [2]) [µM] |
| --- | --- | --- |
| CC(C)=CCC[C@](C)(O[C@@H]1O[C@H](CO)[C@@H](O)[C@H](O)[C@H]1O)[C@H]1CC[C@]2(C)[C@@H]1[C@H](O)C[C@@H]1[C@@]3(C)CC[C@H](O)C(C)(C)[C@@H]3CC[C@]12C [CK] | 8.5 |  |
| CC(C)=CCC[C@](C)(O[C@@H]1O[C@H](CO[C@@H]2O[C@H](CO)[C@@H](O)[C@H](O)[C@H]2O)[C@@H](O)[C@H](O)[C@H]1O)[C@H]1CC[C@]2(C)[C@@H]1[C@H](O)C[C@@H]1[C@@]3(C)CC[C@H](O[C@@H]4O[C@H](CO)[C@@H](O)[C@H](O)[C@H]4O[C@@H]4O[C@H](CO)[C@@H](O)[C@H](O)[C@H]4O)C(C)(C)[C@@H]3CC[C@]12C [Rb1] | 10.5 |  |
| CC(C)=CCC[C@](C)(O[C@@H]1O[C@H](CO)[C@@H](O)[C@H](O)[C@H]1O)[C@H]1CC[C@]2(C)[C@@H]1[C@H](O)C[C@@H]1[C@@]3(C)CC[C@H](O[C@@H]4O[C@H](CO)[C@@H](O)[C@H](O)[C@H]4O[C@@H]4O[C@H](CO)[C@@H](O)[C@H](O)[C@H]4O)C(C)(C)[C@@H]3CC[C@]12C [Rd] | 7.5 |  |
| Nc1ncnc2c1ncn2[C@@H]1O[C@H](COP(=O)(O)OP(=O)(O)OP(=O)(O)O)[C@@H](O)[C@H]1O [ATP] |  | 1.92 |
